Experimental data published in ChEMBL document CHEMBL5725943, “Isoxazole derivatives as FXR agonists and methods of use therof” (2018).
pEC50: −log10 of the molar value.

Target: T1, Bile acid receptor (Homo sapiens, UniProt Q96RI1)
T1 sequence (Q96RI1 whole entry): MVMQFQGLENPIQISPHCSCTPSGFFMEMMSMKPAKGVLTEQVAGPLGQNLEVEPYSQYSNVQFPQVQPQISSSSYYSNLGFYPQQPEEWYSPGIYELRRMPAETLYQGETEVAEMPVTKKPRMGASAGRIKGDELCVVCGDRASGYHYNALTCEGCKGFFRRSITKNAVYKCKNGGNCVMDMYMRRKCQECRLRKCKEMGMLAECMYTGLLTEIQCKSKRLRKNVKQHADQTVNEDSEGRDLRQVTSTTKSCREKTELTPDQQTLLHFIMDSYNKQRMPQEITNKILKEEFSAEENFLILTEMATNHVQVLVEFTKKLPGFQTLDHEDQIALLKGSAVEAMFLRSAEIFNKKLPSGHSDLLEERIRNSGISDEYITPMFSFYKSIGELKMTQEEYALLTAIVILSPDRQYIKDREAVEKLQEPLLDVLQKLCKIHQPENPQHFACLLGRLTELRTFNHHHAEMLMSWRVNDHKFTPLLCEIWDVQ
Test: FXR Reporter Assay kit purchased from Indigo Bioscience (Catalogue number: IB00601) to determine the potency and efficacy of compound developed by Enanta that can induce FXR activation. The principle application of this reporter assay system is to quantify functional activity of human FXR. The assay utilizes non-human mammalian cells, CHO (Chinese hamster ovary) cells engineered to express human NR1H4 protein (referred to as FXR). Reporter cells also incorporate the cDNA encoding beetle luciferase which catalyzes the substrates and yields photon emission. Luminescence intensity of the reaction is quantified using a plate-reading luminometer, Envision. Reporter Cells include the luciferase reporter gene functionally linked to an FXR responsive promoter. Thus, quantifying changes in luciferase expression in the treated reporter cells provides a sensitive surrogate measure of the changes in FXR activity. […] The assay is according to the manufacturer's instructions. In brief, the assay was performed in white, 96 well plates using final volume of 100 μl containing cells with different doses of compounds. Retrieve Reporter Cells from −80° C. storage. Perform a rapid thaw of the frozen cells by transferring a 10 ml volume of 37° C. cell recovery medium into the tube of frozen cells. Recap the tube of Reporter Cells and immediately place it in a 37° C. water bath for 5-10 minutes. […]
Type: cell-based

CN(Cc1ccc(C(=O)NS(=O)(=O)N(C)C)cc1)c1ccc(OCc2c(-c3c(Cl)cccc3Cl)noc2C2CC2)nc1C(F)(F)F
pEC50: > 7.00
